Experimental data from patent US8361998B2, “Compounds and their use as IKACh blockers” (AstraZeneca AB, priority 2010, dated 2013).

Target: T1, human cardiac ion channel proteins hKir3.1/Kir3.4 (Homo sapiens, UniProt P48544+P48549)
T1 construct: expressed in transfected cells
T1 sequence (P48549 1-501): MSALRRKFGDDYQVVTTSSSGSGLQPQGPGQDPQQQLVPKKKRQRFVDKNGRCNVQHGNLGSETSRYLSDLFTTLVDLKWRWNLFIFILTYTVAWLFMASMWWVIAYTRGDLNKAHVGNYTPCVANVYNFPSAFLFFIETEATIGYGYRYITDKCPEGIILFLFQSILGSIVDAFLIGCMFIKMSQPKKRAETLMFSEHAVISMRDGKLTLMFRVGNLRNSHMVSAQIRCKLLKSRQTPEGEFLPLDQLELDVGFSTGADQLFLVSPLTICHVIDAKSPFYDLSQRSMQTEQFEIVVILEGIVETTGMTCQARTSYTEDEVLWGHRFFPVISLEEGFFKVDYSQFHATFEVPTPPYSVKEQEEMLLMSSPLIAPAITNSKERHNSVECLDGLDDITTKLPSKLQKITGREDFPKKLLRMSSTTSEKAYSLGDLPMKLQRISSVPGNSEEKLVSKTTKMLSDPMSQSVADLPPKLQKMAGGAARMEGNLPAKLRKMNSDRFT
T1 sequence (P48544 1-419): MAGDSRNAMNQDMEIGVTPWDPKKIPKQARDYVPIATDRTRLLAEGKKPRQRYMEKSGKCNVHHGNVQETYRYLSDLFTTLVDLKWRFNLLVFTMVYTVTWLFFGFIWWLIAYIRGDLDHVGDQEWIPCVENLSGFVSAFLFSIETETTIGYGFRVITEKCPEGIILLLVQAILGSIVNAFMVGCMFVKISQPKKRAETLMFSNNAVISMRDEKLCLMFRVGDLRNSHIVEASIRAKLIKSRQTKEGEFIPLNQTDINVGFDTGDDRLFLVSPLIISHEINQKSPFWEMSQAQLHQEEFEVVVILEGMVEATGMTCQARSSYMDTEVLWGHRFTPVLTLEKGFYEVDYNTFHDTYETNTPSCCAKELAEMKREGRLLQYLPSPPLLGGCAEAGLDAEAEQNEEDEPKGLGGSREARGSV
Assay: Atomic Absorption Screening (AAS) Rb efflux assay of hKir3.1/Kir3.4 block, carbachol/high K+ stimulated, 10-pt or 7-pt CR
Type: cell-based
Conditions: 10-pt CR (0.003 to 67 μmol/L), AAS Rb efflux, CHO-K1 cells expressing hKir3.1/Kir3.4; mean of >4 replicates; read-out: IKACh IC50 10-pt CR, AAS
Source text: Human KCNJ3 encoding Kir3.1 (Genbank acc. No. NM_002239) was inserted between EcoRI and NotI in the pIRESneo3 vector (Clontech Laboratories, Inc. CA, USA). Human KCNJ5 encoding Kir3.4 (Genbank Acc. No. BC069482) was inserted between EcoR1 and Not1 in the pIRESpuro3 vector (Clontech Laboratories, Inc. CA, USA). A Kozak sequence (GCCACC) was introduced before the start codon ATG of both constructs. Chinese Hamster Ovary K1, CHO-FLP/IN, cells (Invitrogen Corporation, Paisley, UK) were transfected simultaneously using Lipofectamine 2000 reagent (Invitrogen Corporation, Paisley, UK). Geneticin 600 μg/mL (Invitrogen Corporation, Paisley, UK) and puromycin 3 μg/mL (BD Bioscience) were added to the cell culture medium 3 days after transfection. Two weeks after transfection, colonies had appeared and were manually picked and sorted to one cell per well in a 96-well plate. Cells were then tested for Kir3.1 and Kir3.4 expression using membrane potential assay, Western Blot and Immunocytochemistry. […] The cell line was re-sorted by flow cytometry and resulting clones were assayed electrophysiologically using IonWorks (Molecular Devices) and later validated on the Q-Patch (Sophion A/S).
The stable cell line was cultured in DMEM/F12 with Glutamax 1 (Invitrogen Corporation, Paisley, UK), supplemented with foetal bovine serum 10%, puromycin 3 μg/mL, hygromycin 300 μg/mL and geneticin 600 μg/mL (Invitrogen Corporation, Paisley, UK). Care was taken not to seed cells at too low density and cells were passaged at approximately 70-80% confluency. Cells used for patch-clamp experiments were prepared by washing using PBS (—Mg, —Ca^2+), 2 times, detached using Accutase (Sigma). For Q-Patch measurements, storage medium was prepared fresh by adding 1.25 mL of 1M Hepes (GibcoBRL) to 50 mL CHO-SFM II medium (GibcoBRL) and detached cells were diluted to 2 million cells/mL in this medium. Frozen (Cryopreserved) cells were used for Atomic Absorption Screening (AAS) and plated poly-D-lysine 384-well plates (Greiner) at a density of 11,000-13,000 cells/well, the day before assay.
The blocking effects of compounds on the human cardiac ion channel proteins hKir3.1/Kir3.4 were assessed in CHO-K1 cells stably expressing the channel proteins using Atomic Absorption Screening (AAS). Cells were washed and then loaded with 25 μL Rb-loading buffer for three hours at 37° C. After that, the cells were washed again and 25 μL of diluted compound was transferred to the cell plate, incubated for 5 min in RT, and then […] of Carbachol/high K+ (10 μM carbachol and 20 mM KCl final concentration) buffer added to stimulate the cells and open the Kir3.1/Kir3.4 channel. After 10 min stimulation, […] of the supernatant was transferred to a new microplate, 45 μL washing buffer added to the supernatant and the level of Rb in the supernatant was then measured using an Aurora ICR 8000. Compounds were studied at concentrations ranging from 0.003 to 67 μmol/L (dilutions by three, 10-pt CR) or from 0.037 to 27 μmol/L (dilutions by three, 7-pt CR).
Stock solutions of compounds were prepared in DMSO 10 mM and stored at RT. Buffers used for AAS contained (in mM): HEPES 20, NaCl 150, MgCl2 1.0, CaCl2 2.0 and NaH2PO4 0.8 and Glucose 10 (wash 1) or KCl 5 and Glucose 5 (wash 2) or KCl 5 (dilution buffer). The High K^+ channel opener buffer contained (in mM): HEPES 20, NaCl 130, MgCl2 1.0, CaCl2 2.0 and NaH2PO4 0.8 together with KCl 20. Solutions used for Q-Patch (extracellular) in mM: NaCl 145, KCl 4, CaCl2 2.0, MgCl2 1.0, HEPES 10 and glucose 10. The high K^+ extra cellular solution used for Q-Patch in mM: NaCl 96.7, KCl 50.7, CaCl2 2.0, MgCl2 1.0, HEPES 10 and glucose 10 while the intra cellular solution used was (in mM): KCl 120, CaCl2 5.374, MgCl2 1.75, EGTA 10, KOH 3.125, HEPES 10, Na2ATP 4.
Results are given as mean IC50 of >4 replicates (10-pt CR, AAS) or >3 replicates (7-pt CR, AAS). Some of the data in Table 1 are mean values of two or more runs. […]

Row | Compound | IC50 [µM]
1 | Cc1cc(C(=O)N(C)[C@H](CN2CC(F)C2)C(C)C)ccc1F [Example 1.5, (S)-4-Fluoro-N-(1-(3-fluoroazetidin-1-yl)-3-methylbutan-2-yl)-N,3-dimethylbenzamide] | 12
2 | CC(C)[C@@H](CN1CC(F)C1)N(C)C(=O)c1ccc(Cl)cc1 [Example 1.6, (S)-4-Chloro-N-(1-(3-fluoroazetidin-1-yl)-3-methylbutan-2-yl)-N-methylbenzamide] | 6.7
3 | CC(C)[C@@H](CN1CC(F)C1)N(C)C(=O)c1ccc(Br)cc1 [Example 1.7, (S)-4-Bromo-N-(1-(3-fluoroazetidin-1-yl)-3-methylbutan-2-yl)-N-methylbenzamide] | 5
4 | CC(C)[C@@H](CN1CC(F)C1)N(C)C(=O)c1ccc(F)c(Cl)c1 [Example 1.8, (S)-3-Chloro-4-fluoro-N-(1-(3-fluoroazetidin-1-yl)-3-methylbutan-2-yl)-N-methylbenzamide] | 11
5 | CC(C)[C@@H](CN1CC(F)C1)N(C)C(=O)c1ccc(F)c(C(F)(F)F)c1 [Example 1.9, (S)-4-Fluoro-N-(1-(3-fluoroazetidin-1-yl)-3-methyl-butan-2-yl)-N-methyl-3-(trifluoromethyl)benzamide] | 3.6
6 | Cc1cc(C(=O)N(C)[C@H](CN2CCC2)C(C)C)ccc1F [Example 1.10, (S)-N-(1-(Azetidin-1-yl)-3-methylbutan-2-yl)-4-fluoro-N,3-dimethylbenzamide] | 6.9
7 | CC(C)[C@@H](CN1CCC1)N(C)C(=O)c1ccc(F)c(C(F)(F)F)c1 [Example 1.11, (S)-N-(1-(Azetidin-1-yl)-3-methylbutan-2-yl)-4-fluoro-N-methyl-3-(trifluoromethyl)benzamide] | 1.2
8 | CC(C)[C@@H](CN1CCC1)N(C)C(=O)c1ccc(F)c(Cl)c1 [Example 1.12, (S)-N-(1-(Azetidin-1-yl)-3-methylbutan-2-yl)-3-chloro-4-fluoro-N-methylbenzamide] | 2.9
9 | CC(C)[C@@H](CN1CCC1)N(C)C(=O)c1cccc(Cl)c1 [Example 1.13, (S)-N-(1-(Azetidin-1-yl)-3-methylbutan-2-yl)-3-chloro-N-methylbenzamide] | 12
10 | CC(C)[C@@H](CN1CCC1)N(C)C(=O)c1ccccc1 [Example 1.14, (S)-N-(1-(Azetidin-1-yl)-3-methylbutan-2-yl)-N-methylbenzamide] | 6.6
11 | CC(C)[C@@H](CN1CCC1)N(C)C(=O)c1cccc(C(F)(F)F)c1 [Example 1.15, (S)-N-(1-(Azetidin-1-yl)-3-methylbutan-2-yl)-N-methyl-3-(trifluoromethyl)benzamide] | 2.3
12 | Cc1cccc(C(=O)N(C)[C@H](CN2CCC2)C(C)C)c1 [Example 1.16, (S)-N-(1-(Azetidin-1-yl)-3-methylbutan-2-yl)-N,3-dimethyl-benzamide] | 17
13 | CN(C(=O)c1ccc(Cl)c(Cl)c1)[C@H](CN1CCCC1)C(C)(C)C [Example 2.1, (S)-3,4-Dichloro-N-(3,3-dimethyl-1-(pyrrolidin-1-yl)butan-2-yl)-N-methylbenzamide] | 11
14 | CN(C(=O)c1ccc(Br)cc1)[C@H](CN1CCCC1)C(C)(C)C [Example 2.2, (S)-4-Bromo-N-(3,3-dimethyl-1-(pyrrolidin-1-yl)butan-2-yl)-N-methylbenzamide] | 14
15 | CC[C@H](C)[C@@H](CN1CCCC1)N(C)C(=O)c1ccc(Cl)cc1 [Example 2.3, 4-Chloro-N-methyl-N-((2S,3S)-3-methyl-1-(pyrrolidin-1-yl)pentan-2-yl)benzamide] | 1.6
16 | CC[C@H](C)[C@@H](CN1CCCC1)N(C)C(=O)c1ccc(Br)cc1 [Example 2.4, 4-Bromo-N-methyl-N-((2S,3S)-3-methyl-1-(pyrrolidin-1-yl)pentan-2-yl)benzamide] | 1.8
17 | CC[C@H](C)[C@@H](CN1CCCC1)N(C)C(=O)c1ccc(F)c(C)c1 [Example 2.5, 4-Fluoro-N,3-dimethyl-N-((2S,3S)-3-methyl-1-(pyrrolidin-1-yl)pentan-2-yl)benzamide] | 2.7
18 | CC[C@H](C)[C@@H](CN1CCCC1)N(C)C(=O)c1ccc(Cl)cc1Cl [Example 2.6, 2,4-Dichloro-N-methyl-N-((2S,3S)-3-methyl-1-(pyrrolidin-1-yl)pentan-2-yl)benzamide] | 2
19 | CO[C@H](C)[C@@H](CN1CCCC1)N(C)C(=O)c1ccc(F)c(C)c1 [Example 3.1, 4-Fluoro-N-((2R,3R)-3-methoxy-1-(pyrrolidin-1-yl)butan-2-yl)-N,3-dimethylbenzamide] | 7.4
20 | CO[C@H](C)[C@@H](CN1CCCC1)N(C)C(=O)c1cccc(C)c1 [Example 3.2, N-((2R,3R)-3-Methoxy-1-(pyrrolidin-1-yl)butan-2-yl)-N,3-dimethylbenzamide] | 20
21 | CO[C@H](C)[C@@H](CN1CCCC1)N(C)C(=O)c1ccc(F)c(Cl)c1 [Example 3.3, 3-Chloro-4-fluoro-N-((2R,3R)-3-methoxy-1-(pyrrolidin-1-yl)butan-2-yl)-N-methylbenzamide] | 7.2
22 | CO[C@H](C)[C@@H](CN1CCCC1)N(C)C(=O)c1ccc(Br)cc1 [Example 3.4, 4-Bromo-N-((2R,3R)-3-methoxy-1-(pyrrolidin-1-yl)butan-2-yl)-N-methylbenzamide] | 2.2
23 | CO[C@H](C)[C@@H](CN1CCCC1)N(C)C(=O)c1ccc(Cl)cc1 [Example 3.5, 4-Chloro-N-((2R,3R)-3-methoxy-1-(pyrrolidin-1-yl)butan-2-yl)-N-methylbenzamide] | 7.2
24 | COC1CCN(C[C@H](C(C)C)N(C)C(=O)c2ccc(Br)cc2)CC1 [Example 3.6, (S)-4-Bromo-N-(1-(4-methoxypiperidin-1-yl)-3-methylbutan-2-yl)-N-methylbenzamide] | 3.2
